Measured values taken from patent publication US20240310364A1, “TUNABLE DYNAMIC AND NON-DYNAMIC HYDROGEL SYSTEMS” (The Johns Hopkins University, priority 2021, published 2024).

Experiments:
ECFCs [1] = experiment: Inhibition studies (FI 14, GM6001, blebbistatin) in ECFC-loaded D-hydrogels; format: cell-based, human; design: ECFC aspect ratio (cell spreading) / integrin cluster size and area covered / integrin intensity and number / cellular protrusions and filopodia / sprouting: unit of the concentration uncertain; settings: for vascular bed formation (tube length and volume): 3 days, blebbistatin 60 mM, FI 14 10 mM
Description: For 2D screening of the FI 14 (FI-14, R 95.0%; Sigma-Aldrich), the ECFCs were seeded into a 96-well plate at a cell density of 10000 cells/well in EGM-2 media (Lonza) with 10% FBS (Hyclone). After 1 day of culture, 100 μL of EGM-2 media containing increased concentrations of FI 14 ranging from 0 to 10 μM were added per well and culture for additional 24 hr following by staining for phospho-FAK (Tyr397;ThermoFisher Scientific) as described below. Biological triplicates were tested for each FI 14 concentrations. For inhibition studies, ECFCs were suspended in the hydrogel precursor as above with the addition of 10 mM of FI-14 (Sigma-Aldrich) or GM6001 (1 mg mL^−1; Sigma-Aldrich), 60 mM Blebbistain (Sigma-Aldrich) or vehicle control (DMSO; Sigma-Aldrich). The corresponding culture media also supplied with the corresponding inhibitor/vehicle control at the same concentration. Media was replenish every 24 h till analysis.

ECFCs [2] = experiment: as above; format: cell-based, human; design: unit of the concentration uncertain; settings: 0.1 (unit uncertain), versus controls
mUPS spheroids = experiment: Sarcoma spheroid encapsulation in hydrogels; format: cell-based, murine; settings: co-encapsulated in quick-relaxing hydrogels
Description: Spheroids were formed using hanging droplet culture. Briefly, cell monolayers were grown until ˜75% confluent, rinsed with PBS, and passaged with 0.25% Trypsin-EDTA. Hanging droplets of 10,000 cells/20 μL droplet were formed on the inside of the cover of a 60 mm […]. 10 mL of PBS were placed in the bottom of the dish to act as a hydration chamber. Spheroids were cultured as hanging droplets for three days prior to encapsulation in hydrogels. 10 μl of media was added to each droplet on the second day of droplet culture.
For spheroid encapsulation, a similar protocol was followed with the adjustments for spheroids. We first collected 12 spheroids in a 1.5 mL Eppendorf tube, centrifuged for 3 minutes, and then pipetted off the media. All subsequent steps were identical to single-cell encapsulation. Cells in hydrogels were cultured under standard conditions and daily media changes of 200 μL.
Light microscopy images of encapsulated cells were recorded daily at 4×, 10×, and 20× magnifications starting at post-encapsulation (PE) Day 0. For spheroid area quantification, 10× images were grouped by individual spheroid and the area of the spheroid was manually traced in FIJI (NIH) for each day. Days 1-3 were normalized to the size of the spheroid on Day 0. […]

[3] = 60 (unit uncertain), 24 h, ECFCs in D-hydrogels

SMILES | ECFC aspect ratio (cell spreading) (ECFCs [1]; 10 (unit uncertain), 24 h, versus control D-hydrogels) | sprouting (ECFCs [1]; 10 (unit uncertain), ECFCs in D-hydrogels) | phosphorylation of MLC (ECFCs [1]; 24 h, ECFCs in D-hydrogels) | integrin β1 and integrin aV mRNA expression (ECFCs [1]; 24 h, versus D-hydrogel controls) | MMP1 and MMP9 mRNA levels (ECFCs [1]; 24 h, versus untreated controls) | MT1-MMP expression at protein and mRNA levels (ECFCs [1]; 24 h in culture) | vascular bed formation (tube length and volume) (ECFCs [1]; ECFCs in D-hydrogels) | tubulogenesis of ECFCs (ECFCs [2]) | stiffness of ECFC-loaded D-hydrogels (ECFCs [1]; day 3, versus without MMP inhibitor) | spheroid size under contractility inhibition (mUPS spheroids) | cellular protrusions and filopodia (ECFCs [1]; [3]) | integrin cluster size and area covered (ECFCs [1]; [3]) | integrin intensity and number (ECFCs [1]; [3])
Nc1cc(N)c(N)cc1N [FI 14] | cell spreading is reduced | significant reduction | reduces the phosphorylation of MLC | downregulation | significant reduction | significantly lower expression | decrease in tube length and volume |  |  |  |  |  | 
CNC(=O)[C@H](Cc1c[nH]c2ccccc12)NC(=O)[C@@H](CC(=O)NO)CC(C)C [GM6001] |  |  |  |  |  |  |  | inhibited | significantly stiffer |  |  |  | 
Cc1ccc2c(c1)C(=O)C1(O)CCN(c3ccccc3)C1=N2 (centres unmarked) [blebbistatin] |  |  |  |  |  |  | shorter tube length and reduced vessel volume |  |  | not sufficient to fully mirror spheroid shrinkage | decrease | significant decrease | did not affect
